Source: US11932595B2, “VDR-silent vitamin D derivative as inhibitors of SREBP and pharmaceutical use thereof” (KYOTO UNIVERSITY, priority 2020, dated 2024)

Legend:
VDR = VDR reporter assay (Cignal Vitamin D Receptor Reporter) in CHO-K1 cells; format: cell-based; settings: 5 μM compound, lipid-free medium, FIGS. 2 and 4
Description: (§1) Cell Culture: CHO-K1 cells were maintained in medium A (1:1 mixture of Ham's F-12 medium and DMEM, supplemented with 100 units/mL penicillin, 100 μg/mL streptomycin sulfate, and 5% [v/v] fetal bovine serum) at 37° C. in a humidified 5% CO2 incubator.
(§2) CHO-K1 cells were seeded into 96-well plates at 8×10^3 cells per well in medium A and incubated for 24 h. For SREBP reporter assay, cells were co-transfected with an SRE-1-driven luciferase reporter plasmid (pSRE-Luc) and an actin promoter-driven β-galactosidase expression plasmid (pAc-13-gal) at a 20:1 ratio, using FuGENE HD Transfection Reagent (Promega) according to the manufacturer's protocol.
For VDR reporter assay, Cignal Vitamin D Receptor Reporter (QIAGEN) was transfected instead of pSRE-Luc.
(§3) After 20 h, the medium was changed to medium B (1:1 mixture of Ham's F-12 medium and DMEM, supplemented with 100 units/mL penicillin, 100 μg/mL streptomycin sulfate, 5% [v/v] lipid-depleted serum, 50 μM compactin (Tokyo Chemical Industry), and 50 μM lithium mevalonate (Sigma-Aldrich) containing the specific test compounds. After 24 h incubation, the cells in each well were lysed with 100 μL of 1× Reporter Lysis Buffer (Promega), and 50 μL of aliquots were used to measure luciferase and 13-gal activities. Luciferase activity was measured using the Steady-Glo Luciferase Assay System (Promega), and 13-gal activity was measured using the 13-Galactosidase Enzyme Assay System (Promega). Luciferase activity was normalized to 13-gal activity.
For the VDR assay, CHO-K1 cells were treated with 5 μM of the compounds in a lipid-free medium. The same experiment using 25(OH)D3 (1) was performed as control. Values are mean±SD.

SREBP = SREBP luciferase reporter assay (pSRE-Luc) in CHO-K1 cells; format: cell-based; settings: for SREBP inhibitory activity (expression of SREBP-responsive luciferase reporter gene): CHO-K1 cells, 5 μM compound, lipid-free medium, 24 h, FIGS. 1 and 3
Description: as §1, §2, §3
[…] The same experiment using of 25(OH)D3 (1) was performed as control. Values are mean±SD.

SREBP-responsive genes = assay: Short-term in vivo model (fasting/refeeding): hepatic mRNA of SREBP-responsive genes by real-time PCR; design: species or system mice; settings: for hepatic expression of SREBP-response genes ACC1 and FASN versus vehicle: 10 mg/kg intraperitoneally once every 24 hours, fasted 48 h/refed 48 h, n=3, FIG. 5C
Description: (§4) To quickly and simultaneously examine their SREBP inhibitory activity and VDR-derived calcemic activity in vivo, a short-term in vivo screening system of mice was established. With reference to the previous report (Horton, J. D. et al. Proc. Natl. Acad. Sci. U.S.A. 1998, 95, 5987-5992.), mice were fasted for 48 hours then refed a special diet (low fat, high carbohydrate diet, lacking in vitamin D) for 48 hours before sacrifice.
(§5) C57BL/6 and oh/oh mice were purchased from CLEA Japan and Charles River Japan, Inc., respectively. Animal experiments were carried out at the University of Tokyo and Charles River Laboratories. Low fat, high carbohydrate diet, lacking vitamin D was custom made by Research Diets, Inc. Compounds disclosed herein and 25(OH)D3 were dissolved in ethanol/Tween 20 (9:1) to obtain stock solution and then diluted 10-fold with PBS immediately before administration to mice.
(§6) 10 mg/kg compounds or vehicle control were administered intraperitoneally once every 24 hours during the fasting and refeeding.
Relative mRNA levels of SREBP-responsive genes were determined by real-time PCR in the livers obtained from the mice with free access to a normal diet or fasted and refed a special diet (means SEM, n=3 per group), *p<0.05.
Expression levels of SREBP-responsive genes were determined by real-time PCR in the livers obtained from the mice treated with indicated compounds (10 mg/kg) according to the protocol illustrated in FIG. 5A. Data are expressed as relative expression to the mean value of vehicle-treated mouse liver (means±SEM, n=3 per group), *p<0.05 (FIG. 5C).
Relative mRNA levels of SREBP-responsive genes were determined by real-time PCR in the livers obtained from the indicated mice Data are means±SEM (fed mice, n=3; others, n=6), *p<0.05 (FIG. 5E).

[1] = Short-term in vivo model: serum calcium levels; design: species or system mice; settings: 10 mg/kg intraperitoneally, after 4 days, n=3, FIG. 5D
Description: as §4, §5, §6
Following sacrifice, mouse livers were fixed in 10% neutral-buffered formalin, embedded in paraffin, sectioned, and stained with H&E. Hepatic lipids were extracted with chloroform/methanol (2:1 v/v), and TG and cholesterol contents were measured with Triglyceride Reagent Set (Pointe Scientific) and Cholesterol E (Wako), respectively. Serum levels of ALT, TG, glucose, cholesterol, and calcium were measured in SRL Inc. (Tokyo). All experiments were approved by the Ethics Committee for Animal Experimentation of the University of Tokyo and Charles River Laboratories Japan, and were conducted in accordance with the Guidelines for the Care and Use of Laboratory Animals.
Serum calcium levels in the mice treated with vehicle, compounds, or 25(OH)D3 were determined (means±SEM, n=3 per group), *p<0.05 (FIG. 5D).

[2] = Maynard et al. J Med. Chem. 1994; cited from earlier work
[3] = cited from earlier work
SREBP/SCAP = settings: Nagata, ACS Chem. Biol. 2019; cited from earlier work

Structure (SMILES) | VDR activity (VDR reporter activation) (VDR) | SREBP inhibitory activity (expression of SREBP-responsive luciferase reporter gene) (SREBP) | also measured
C[C@H](CCC(F)(F)C(C)(C)O)[C@H]1CC[C@H]2/C(=C/Cn3nnc(-c4ccc(F)cc4)n3)CCC[C@]12C [Compound 49, 3,3-Difluoro-6-[(1R,3aS,7aR,E)-4-{2-[5-(4-fluorophenyl)-2H-tetrazol-2-yl]ethylidene}-7a-methyloctahydro-1H-inden-1-yl]-2-methylheptan-2-ol] | lacked in VDR activity | maintained SREBP inhibitory activities | hepatic expression of SREBP-response genes ACC1 and FASN versus vehicle (SREBP-responsive genes): significantly suppressed; elevated hepatic expression of the three SREBP-responsive genes ACC1, FASN and SCD1 (SREBP-responsive genes; 10 mg/kg intraperitoneally, fasting/refeeding, FIG. 5C): mitigated the elevated expression; serum calcium levels [1]: no detectable increase
C[C@H](CCCC(O)(C(F)(F)F)C(F)(F)F)[C@H]1CC[C@H]2/C(=C/Cn3cc(-c4ccc(F)cc4)nn3)CCC[C@]12C [Compound 39, (R)-1,1,1-Trifluoro-6-[(1R,3aS,7aR,E)-4-{2-[4-(4-fluorophenyl)-1H-1,2,3-triazol-1-yl]ethylidene}-7a-methyloctahydro-1H-inden-1-yl]-2-(trifluoromethyl)heptan-2-ol] | lacked in VDR activity | maintained SREBP inhibitory activities | hepatic expression of SREBP-response genes ACC1 and FASN versus vehicle (SREBP-responsive genes): significantly suppressed; serum calcium levels [1]: elevated levels of serum calcium
C[C@H](CCCC(C)(C)O)[C@H]1CC[C@H]2/C(=C/Cn3cc(CCCCO)nn3)CCC[C@]12C [Compound 29, 6-[(1R,3aS,7aR,E)-4-{2-[4-(4-Hydroxybutyl)-1H-1,2,3-triazol-1-yl]ethylidene}-7a-methyloctahydro-1H-inden-1-yl]-2-methylheptan-2-ol] | detectable VDR activity | – | –
C[C@H](CCCC(C)(C)O)[C@H]1CC[C@H]2/C(=C/Cn3ncnn3)CCC[C@]12C [Compound 22] | detectable VDR activity | – | –
CC1=C(/C=C\C2=CCC[C@@]3(C)[C@@H]2CC[C@@H]3[C@H](C)CCCC(C)(C)O)C[C@@H](O)C[C@@H]1O [14-epi-25(OH) D3, reference compound] | – | – | calcemic action [2]: markedly decreased calcemic action; expression of an SREBP-responsive luciferase reporter (SREBP; screening of in-house collection, data not shown): comparable level to 25(OH)D3
C[C@H](CCCC(C)(C)O)[C@H]1CC[C@H]2/C(=C/Cn3cc(-c4ccccn4)nn3)CCC[C@]12C [Compound 26, (R)-2-Methyl-6-[(1R,3aS,7aR,E)-7a-methyl-4-{2-[4-(pyridin-2-yl)-1H-1,2,3-triazol-1-yl]ethylidene}octahydro-1H-inden-1-yl]heptan-2-ol] | detectable VDR activity | – | –
C[C@H](CCC(F)(F)C(C)(C)O)[C@H]1CC[C@H]2/C(=C/Cn3cc(-c4ccc(F)cc4)nn3)CCC[C@]12C [Compound 47, (R)-3,3-Difluoro-6-[(1R,3aS,7aR,E)-4-{2-[4-(4-fluorophenyl)-1H-1,2,3-triazol-1-yl]ethylidene}-7a-methyloctahydro-1H-inden-1-yl]-2-methylheptan-2-ol] | lacked in VDR activity | maintained SREBP inhibitory activities | –
Cc1ccc(S(=O)(=O)N[C@@H]2C/C(=C/C=C3\CCC[C@]4(C)[C@@H]([C@H](C)CCCC(O)(C(F)(F)F)C(F)(F)F)CC[C@@H]34)C[C@@H](F)C2)cc1 [Compound 3] | – | – | calcemic activity in vivo ([3]; high doses): residual calcemic activity; bioavailability ([3]; in vivo): low; effect on SREBP/SCAP and VDR activity in cultured cells (SREBP/SCAP): selectively impaired SREBP/SCAP without eliciting VDR activity
C[C@H](CCCC(C)(C)O)[C@H]1CC[C@H]2/C(=C/C(=O)N3CCOCC3)CCC[C@]12C [Compound 20, 2-{(1R,3aS,7aR,E)-1-[(R)-6-Hydroxy-6-methylheptan-2-yl]-7a-methyloctahydro-4H-inden-4-ylidene}-1-morpholinoethan-1-one] | – | little effect | –
C[C@H](CCC(F)(F)C(C)(C)O)[C@H]1CC[C@H]2/C(=C/Cn3nnnc3-c3ccc(F)cc3)CCC[C@]12C [Compound 51, (R)-3,3-Difluoro-6-[(1R,3aS,7aR,E)-4-{2-[5-(4-fluorophenyl)-1H-tetrazol-1-yl]ethylidene}-7a-methyloctahydro-H-inden-1-yl]-2-methylheptan-2-ol] | lacked in VDR activity | maintained SREBP inhibitory activities | –
C[C@H](CCCC(O)(C(F)(F)F)C(F)(F)F)[C@H]1CC[C@H]2/C(=C/Cn3cc(-c4ccccc4)nn3)CCC[C@]12C [Compound 38, (R)-1,1,1-Trifluoro-6-{(1R,3aS,7aR,E)-7a-methyl-4-[2-(4-phenyl-1H-1,2,3-triazol-1-yl)ethylidene]octahydro-1H-inden-1-yl}-2-(trifluoromethyl)heptan-2-ol] | – | – | hepatic expression of SREBP-response genes ACC1 and FASN versus vehicle (SREBP-responsive genes): significantly suppressed; serum calcium levels [1]: elevated levels of serum calcium
C[C@H](CCCC(C)(C)O)[C@H]1CC[C@H]2/C(=C/Cn3cnnn3)CCC[C@]12C [Compound 21, (R)-6-{(1R,3aS,7aR,E)-4-[2-(1H-Tetrazol-1-yl)ethylidene]-7a-methyloctahydro-1H-inden-1-yl}-2-methylheptan-2-ol] | detectable VDR activity | – | –
C[C@H](CCCC(C)(C)O)[C@H]1CC[C@H]2/C(=C/C(=O)N3CCCCC3)CCC[C@]12C [Compound 19, 2-{(1R,3 aS,7 aR,E)-1-[(R)-6-Hydroxy-6-methylheptan-2-yl]-7a-methyloctahydro-4H-inden-4-ylidene}-1-(piperidin-1-yl)ethan-1-one] | – | little effect | –
